The text below walks through data of US11542233B2, “Compounds, compositions and methods of use” (Aquinnah Pharmaceuticals, Inc., priority 2016, dated 2023).

The subject of this assay is TDP-43 aggregation in PC12 cells stably expressing GFP-tagged mutant TDP-43 (TDP-43^Q33IK::eGFP). As to the kind of experiment: In vitro efficacy assay: inhibition of TDP-43 inclusions, concentration-response, fluorescence microscopy. It is filed as cell-based. The settings on record: Rattus norvegicus, PC-12, PC12 cells, 1 hour pre-treatment, 15 μM sodium arsenite for 23 hours, 10-point dose response curve. In a few lines:
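PC12 cells stably expressing TDP-43^Q33IK::eGFP pre-treated 1 h with compound, then stressed with 15 μM sodium arsenite for 23 h. Fluorescence microscopy gave the fraction of GFP-positive cells bearing aggregates; IC50 from concentration-response, reported in bins: A <100 nM, B 100–500 nM, C 500 nM–2 μM, D >2 μM.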
The IC50 is the concentration at which inhibition is half-maximal. `CCN(C(=O)c1nc2c(OC)cccc2[nH]1)[C@H]1CCC[C@@H](NCc2ccccc2)C1` [Compound 484]: the IC50 is less than 100 nM.

On to `CCN(C(=O)c1nc2cc(C#N)ccc2[nH]1)[C@H]1CCC[C@@H](NCc2ccccc2)C1` [Compound 485], for which the IC50 was less than 100 nM.

With `CCN(C(=O)c1cc2ncncc2[nH]1)[C@H]1CCC[C@@H](NCc2ccccc2)C1` [Compound 486], the IC50 lay within 100 to 500 nM.

Consider `CCN(C(=O)c1nc2ccccc2[nH]1)[C@H]1CCC[C@@H](NCc2ccc3ncoc3c2)C1` [Compound 487, N-((1S,3R)-3-((benzo[d]oxazol-6-ylmethyl)amino)cyclohexyl)-N-ethyl-1H-benzo[d]imidazole-2-carboxamide], for which the IC50 is less than 100 nM.

With `CCN(C(=O)c1nc2ccccc2[nH]1)[C@H]1CCC[C@@H](NCc2nc3ccccc3s2)C1` [Compound 488], the IC50 is less than 100 nM.

Take `CCN(C(=O)c1nc2ccccc2[nH]1)[C@H]1CCC[C@@H](NCc2ccc3ocnc3c2)C1` [Compound 489]: the IC50 was less than 100 nM.

Turning to `CCN(C(=O)c1nc2ccccc2[nH]1)[C@H]1CCC[C@@H](NCc2cc3ccccc3s2)C1` [Compound 490], the IC50 was less than 100 nM.

`CCN(C(=O)c1nc2ccccc2[nH]1)[C@H]1CCC[C@@H](NCc2cc3ncccc3o2)C1` [Compound 491]: the IC50 is less than 100 nM.

On to `CCN(C(=O)c1nc2ccccc2[nH]1)[C@H]1CCC[C@@H](NCc2ccc3cncn3c2)C1` [Compound 492], for which the IC50 was less than 100 nM.

Take `CCN(C(=O)c1nc2ccccc2[nH]1)[C@H]1CCC[C@@H](NCc2cc3ccccn3c2)C1` [Compound 493]: the IC50 was less than 100 nM.

For the compound `CCN(C(=O)c1nc2ccccc2[nH]1)[C@H]1CCC[C@@H](NCc2cn3ccccc3n2)C1` [Compound 494, N-ethyl-N-((1S,3R)-3-((imidazo[1,2-a]pyridin-2-ylmethyl)amino)cyclohexyl)-1H-benzo[d]imidazole-2-carboxamide], the IC50 was less than 100 nM.

Take `CCN(C(=O)c1nc2ccccc2[nH]1)[C@H]1CCC[C@@H](NCc2cc(C3CC3)no2)C1` [Compound 495, N-((1S,3R)-3-(((3-cyclopropylisoxazol-5-yl)methyl)amino)cyclohexyl)-N-ethyl-1H-benzo[d]imidazole-2-carboxamide]: the IC50 was less than 100 nM.

For `CCN(C(=O)c1cc2ccccc2[nH]1)[C@H]1CCC[C@@H](NCc2oc3ccccc3c2C#N)C1` [Compound 496], the IC50 was less than 100 nM.

Consider `CCN(C(=O)c1nc2ccccc2[nH]1)[C@H]1CCC[C@@H](NCc2oc3ccccc3c2C#N)C1` [Compound 497], for which the IC50 is less than 100 nM.

Turning to `CCN(C(=O)c1cc2c(OC)cccc2[nH]1)[C@H]1CCC[C@@H](NCc2oc3ccccc3c2C#N)C1` [Compound 498], the IC50 is less than 100 nM.

In the case of `CCN(C(=O)c1cc2ccccc2[nH]1)[C@H]1CCC[C@@H](Nc2nnc(C3CC3)s2)C1` [Compound 499, N-((1S,3R)-3-((5-cyclopropyl-1,3,4-thiadiazol-2-yl)amino)cyclohexyl)-N-ethyl-1H-indole-2-carboxamide], the IC50 was greater than 2000 nM.

For `CCN(C(=O)c1cc2ccccc2[nH]1)[C@H]1CCC[C@@H](Nc2nnc(C)s2)C1` [Compound 500], the IC50 was greater than 2000 nM.

On to `CCN(C(=O)c1cc2ncccc2[nH]1)[C@H]1CCC[C@@H](Nc2ccccc2)C1` [Compound 501], for which the IC50 is greater than 2000 nM.

Take `CCN(C(=O)c1cc2c([nH]1)CC(C)(C)OC2)[C@H]1CCC[C@@H](NCc2ccccc2)C1` [Compound 502, N-((1S,3R)-3-(benzylamino)cyclohexyl)-N-ethyl-6,6-dimethyl-1,4,6,7-tetrahydropyrano[4,3-b]pyrrole-2-carboxamide]: the IC50 fell in the range of 500 to 2000 nM.

For `CCN(C(=O)c1cc2c([nH]1)CCOC2)[C@H]1CCC[C@@H](NCc2ccccc2)C1` [Compound 503], the half-inhibitory concentration (IC50) was 100 to 500 nM.

On to `CCN(C(=O)c1cc2ccccc2[nH]1)[C@H]1COC[C@@H](N[C@@H]2CCc3ccccc32)C1` [Compound 504, N-((3R,5S)-5-(((R)-2,3-dihydro-1H-inden-1-yl)amino)tetrahydro-2H-pyran-3-yl)-N-ethyl-1H-indole-2-carboxamide], for which the IC50 was less than 100 nM.

As for `CCN(C(=O)c1cc2ccccc2[nH]1)[C@@H]1COC[C@H](N[C@@H]2CCc3ccccc32)C1` [Compound 505, N-((3S,5R)-5-(((R)-2,3-dihydro-1H-inden-1-yl)amino)tetrahydro-2H-pyran-3-yl)-N-ethyl-1H-indole-2-carboxamide], the IC50 was greater than 2000 nM.

Turning to `CCN(C(=O)c1cc2ccccc2[nH]1)[C@H]1COC[C@H](N[C@@H]2CCc3ccccc32)C1` [Compound 506, N-((3R,5R)-5-(((R)-2,3-dihydro-1H-inden-1-yl)amino)tetrahydro-2H-pyran-3-yl)-N-ethyl-1H-indole-2-carboxamide], the IC50 lay within 500 to 2000 nM.

As to `CCN(C(=O)c1cc2ccccc2[nH]1)[C@@H]1COC[C@@H](N[C@@H]2CCc3ccccc32)C1` [Compound 507, N-((3S,5S)-5-(((R)-2,3-dihydro-1H-inden-1-yl)amino)tetrahydro-2H-pyran-3-yl)-N-ethyl-1H-indole-2-carboxamide], the IC50 was greater than 2000 nM.

Regarding `CCN(C(=O)c1cc2ccccc2[nH]1)C1COC[C@@H](N[C@H]2CCc3ccccc32)C1` (stereo partly shown) [Compound 508], the half-inhibitory concentration (IC50) was greater than 2000 nM.

Regarding `CCN(C(=O)c1cc2ccccc2[nH]1)C1CCC[C@H](N[C@H]2CCc3ccccc32)C1` (stereo partly shown) [Compound 509], the half-inhibitory concentration (IC50) is greater than 2000 nM.

As to `CCN(C(=O)c1cc2c([nH]1)CCCO2)[C@H]1CCC[C@@H](NCc2ccccc2)C1` [Compound 511, N-((1S,3R)-3-(benzylamino)cyclohexyl)-N-ethyl-1,5,6,7-tetrahydropyrano[3,2-b]pyrrole-2-carboxamide], the IC50 lay in the range of 100 to 500 nM.

Turning to `CCN(C(=O)c1cc2c([nH]1)CCCS2(=O)=O)[C@H]1CCC[C@@H](NCc2ccccc2)C1` [Compound 512, N-((1S,3R)-3-(benzylamino)cyclohexyl)-N-ethyl-1,5,6,7-tetrahydrothiopyrano[3,2-b]pyrrole-2-carboxamide 4,4-dioxide], the IC50 lay within 100 to 500 nM.

As to `CCN(C(=O)c1nc2ccccc2[nH]1)[C@H]1CCC[C@@H](NCc2nnc(C3CC3)o2)C1` [Compound 513, N-((1S,3R)-3-(((5-cyclopropyl-1,3,4-oxadiazol-2-yl)methyl)amino)cyclohexyl)-N-ethyl-1H-benzo[d]imidazole-2-carboxamide], the IC50 is 100 to 500 nM.

For `CCN(C(=O)c1nc2ccccc2[nH]1)[C@H]1CCC[C@@H](NCc2ccc3cccn3c2)C1` [Compound 514, N-ethyl-N-((1S,3R)-3-((indolizin-6-ylmethyl)amino)cyclohexyl)-1H-benzo[d]imidazole-2-carboxamide], the IC50 is less than 100 nM.

Take `CCN(C(=O)c1nc2ccccc2[nH]1)[C@H]1CCC[C@@H](NCc2cc(C3CC3)on2)C1` [Compound 515, N-((1S,3R)-3-(((5-cyclopropylisoxazol-3-yl)methyl)amino)cyclohexyl)-N-ethyl-1H-benzo[d]imidazole-2-carboxamide]: the IC50 was less than 100 nM.

For the compound `CCN(C(=O)c1nc2cc(C#N)ccc2[nH]1)[C@H]1CCC[C@@H](NCc2cccc(F)c2)C1` [Compound 516, 5-cyano-N-ethyl-N-((1S,3R)-3-((3-fluorobenzyl)amino)cyclohexyl)-1H-benzo[d]imidazole-2-carboxamide], the IC50 was less than 100 nM.

Regarding `CCN(C(=O)c1nc2cc(C#N)ccc2[nH]1)[C@H]1CCC[C@@H](NCc2cc3ccccc3o2)C1` [Compound 517], the IC50 was less than 100 nM.

Regarding `CCN(C(=O)c1nc2cc(C#N)ccc2[nH]1)[C@H]1CCC[C@@H](NCc2oc3ccccc3c2C)C1` [Compound 518], the IC50 was less than 100 nM.

For `CCN(C(=O)c1nc2cc(C#N)ccc2[nH]1)[C@H]1CCC[C@@H](NCc2ccc(F)cc2)C1` [Compound 519], the IC50 was less than 100 nM.

With `CCN(C(=O)c1nc2cc(C#N)ccc2[nH]1)[C@H]1CCC[C@@H](NCc2oc3ccccc3c2C#N)C1` [Compound 520], the IC50 was less than 100 nM.

`[2H]C([2H])(N[C@@H]1CCC[C@H](N(CC)C(=O)c2cc3ccccc3[nH]2)C1)c1ccccc1` [Compound 521, N-ethyl-N-((1S,3R)-3-((phenylmethyl-d2)amino)cyclohexyl)-1H-indole-2-carboxamide]: the IC50 was less than 100 nM.

Consider `[2H]C([2H])(N[C@@H]1CCC[C@H](N(CC)C(=O)c2nc3ccccc3[nH]2)C1)c1ccccc1` [Compound 522, N-ethyl-N-((1S,3R)-3-((phenylmethyl-d2)amino)cyclohexyl)-1H-benzo[d]imidazole-2-carboxamide], for which the IC50 was less than 100 nM.

Turning to `CCN(C(=O)c1nc2cc(F)ccc2[nH]1)[C@H]1CCC[C@@H](NCc2cc3ccccc3o2)C1` [Compound 523], the IC50 is less than 100 nM.

Turning to `CCN(C(=O)c1nc2cc(F)ccc2[nH]1)[C@H]1CCC[C@@H](NCc2oc3ccccc3c2C)C1` [Compound 524], the concentration for half-maximal inhibition (IC50) was less than 100 nM.

Turning to `CCN(C(=O)c1nc2cc(F)ccc2[nH]1)[C@H]1CCC[C@@H](NCc2cccc(F)c2)C1` [Compound 525], the IC50 is less than 100 nM.

For `CCN(C(=O)c1nc2cc(F)ccc2[nH]1)[C@H]1CCC[C@@H](NCc2ccc(F)cc2)C1` [Compound 526], the IC50 is less than 100 nM.

Take `CCN(C(=O)c1nc2cc(F)ccc2[nH]1)[C@H]1CCC[C@@H](NCc2ccc(C#N)cc2)C1` [Compound 527]: the IC50 is less than 100 nM.

For the compound `CCN(C(=O)c1nc2cc(F)ccc2[nH]1)[C@H]1CCC[C@@H](NCc2cccc(C#N)c2)C1` [Compound 528], the half-inhibitory concentration (IC50) was less than 100 nM.

As to `CCN(C(=O)c1nc2cc(C#N)ccc2[nH]1)[C@H]1CCC[C@@H](NCc2ccc3ocnc3c2)C1` [Compound 529], the IC50 was less than 100 nM.

As for `CCN(C(=O)c1nc2ccccc2[nH]1)[C@H]1CCC[C@@H](NCc2ccc3nc(C)oc3c2)C1` [Compound 530, N-ethyl-N-((1S,3R)-3-(((2-methylbenzo[d]oxazol-6-yl)methyl)amino)cyclohexyl)-1H-benzo[d]imidazole-2-carboxamide], the IC50 is less than 100 nM.
